Test results from US9132130B2, “Purine derivative and antitumor agent using same” (ZENYAKU KOGYO KABUSHIKI KAISHA, priority 2009, dated 2015).
Where a name gives a salt, the structure may show the parent alone.

Experiments:
Assay type in all cases: cell-based
[1] = tested on: A549 cells (human lung cancer cells); experiment: in vitro antitumor activity test, A549 cells, XTT colorimetry; settings: cultured 72 hours
Protocol: (§1) WiDr cells (human colon cancer cells) subcultured in a culture medium composed of a MEM medium added with 10% fetal bovine serum, 25 mM HEPES and 0.1 mg/ml kanamycin under the conditions of 37° C. and 5% carbon dioxide gas were made into single floating cells by treating with trypsin/EDTA, and a single cell suspension of 3×10^4 cells per 1 ml was prepared using the MEM medium (added with 10% fetal bovine serum, 25 mM HEPES and 0.1 mg/ml kanamycin). After dissolving the test compounds in DMSO, they were diluted in a RPMI 1640 medium (added with 10% fetal bovine serum, 25 mM HEPES and 0.1 mg/ml kanamycin) and prepared so that the concentrations were 2.0×10^−9 to 2.0×10^−4 M.
(§2) 0.1 ml of the cell suspension was placed into each well of 96-well microplates, cultured for 24 hours to allow the cells to adhere to the microplates, then 0.1 ml of the sample solutions were added, and cultured for 72 hours at 37° C. in 5% carbon dioxide gas.
(§3) Afterwards, the level of growth inhibition at various sample concentrations was obtained using XTT colorimetry, and concentrations at which growth was inhibited by 50% (GI50 values [μM]) were calculated.
(§4) In addition, cells other than WiDr cells that were used, and the condition for preparing each single cell suspension were as follows.
A549 cells (human lung cancer cells): 2×10^4 cells/ml

[2] = tested on: P388 cells (mouse leukemia cells); experiment: in vitro antitumor activity test, P388 cells, XTT colorimetry; settings: cultured 72 hours
Protocol: P388 cells (mouse leukemia cells) passaged in the abdominal cavity of DBA/2 mice were extracted with ascitic fluid, and cultured in a RPMI 1640 medium (added with 10% fetal bovine serum, 25 mM HEPES, 0.1 mg/ml kanamycin and 5 μM 2-hydroxyethyldisulfide) at 37° C. in 5% carbon dioxide gas. After culturing for 16 hours, floating P388 cells were made into a single cell suspension of 4×10^4 cells per 1 ml using the same RPMI 1640 medium as given above. The test substances were dissolved in DMSO, then diluted in a RPMI 1640 medium (added with 10% fetal bovine serum, 25 mM HEPES and 0.1 mg/ml kanamycin) and prepared so that the concentrations were 2.0×10^−9 to 2.0×10^−4 M.
0.1 ml of the cell suspension was placed into each well of 96-well microplates, then 0.1 ml of the sample solutions were added, and cultured for 72 hours at 37° C. in 5% carbon dioxide gas.
as §3

[3] = tested on: WiDr cells (human colon cancer cells); experiment: in vitro antitumor activity test, WiDr cells, XTT colorimetry; settings: cultured 72 hours
Protocol: as §1, §2, §3

[4] = tested on: B16F10 cells (mouse melanoma [malignant melanoma] cells); experiment: in vitro antitumor activity test, B16F10 cells, XTT colorimetry; settings: B16-F10, cultured 72 hours
Protocol: as §1, §2, §3, §4
B16F10 cells (mouse melanoma [malignant melanoma] cells): 1×10^4 cells/ml

[5] = tested on: PC-3 cells (human prostate cancer cells); experiment: in vitro antitumor activity test, PC-3 cells, XTT colorimetry; settings: PC-3 human prostate cancer cells, cultured 72 hours
Protocol: as §1, §2, §3, §4
PC-3 cells (human prostate cancer cells): 2×10^4 cells/ml

| GI50 [1] [nM] | GI50 [2] [nM] | GI50 [3] [nM] | GI50 [4] [nM] | GI50 [5] [nM] | Structure (SMILES) |
| --- | --- | --- | --- | --- | --- |
| < 40 | < 40 | 80 | 110 | 70 | COc1ccc(CSc2nc(-c3c(C)noc3C)c3ncn(C)c3n2)cc1 [Compound 169, 6-(3,5-dimethylisoxazol-4-yl)-2-(4-methoxybenzylsulfanyl)-9-methyl-9H-purine] |
| 670 | 280 | 510 | 540 | 870 | C/C=C/c1nc(SCc2ccc(OC)cc2)nc2c1ncn2C [Compound 163, 2-(4-methoxybenzylsulfanyl)-9-methyl-6-(1-trans-propenyl)-9H-purine] |
| 1690 | 1280 | 1250 | 1820 | 890 | C=Cc1ccc(CSc2nc(N3CCOCC3)c3nc(CC)n(C)c3n2)cc1 [Compound 10, 8-ethyl-9-methyl-6-morpholino-2-(4-vinylbenzylsulfanyl)-9H-purine] |
| 140 | 200 | 290 | 300 | 950 | CCOc1ccc(CSc2nc(N3CCOCC3)c3nc(CC)n(CC)c3n2)cc1N [Compound 106, 2-(3-amino-4-ethoxybenzylsulfanyl)-8,9-diethyl-6-morpholino-9H-purine] |
| 320 | 290 | 390 | 1340 | 460 | CCc1nc2c(N3CCOCC3)nc(SCc3ccc(I)cc3)nc2n1C [Compound 49, 8-ethyl-2-(4-iodobenzylsulfanyl)-9-methyl-6-morpholino-9H-purine] |
| 120 | 200 | 260 | 340 | 160 | CCc1nc2c(N3CCOCC3)nc(SCc3ccc(OC)c(F)c3)nc2n1C [Compound 14, 8-ethyl-2-(3-fluoro-4-methoxybenzylsulfanyl)-9-methyl-6-morpholino-9H-purine] |
| 140 | 70 | 160 | 210 | 70 | COc1ccc(CSc2nc(N3CCOCC3)c3ncn(C)c3n2)cc1C#N [Compound 80, 2-(3-cyano-4-methoxybenzylsulfanyl)-9-methyl-6-morpholino-9H-purine] |
| 420 | 130 | 200 | 370 | 240 | CCc1nc2c(N3CCOCC3)nc(SCc3ccc(OC)c(F)c3)nc2n1CC [Compound 123, 8,9-diethyl-2-(3-fluoro-4-methoxybenzylsulfanyl)-6-morpholino-9H-purine] |
| 50 | 60 | 70 | 100 | 60 | COc1ccc(CSc2nc(N(C)OC)c3ncn(C)c3n2)cc1F [Compound 137, 2-(3-fluoro-4-methoxybenzylsulfanyl)-6-(N-methoxy-N-methylamino)-9-methyl-9H-purine] |
| 1600 | 1500 | 3300 | 1900 | 870 | CCc1nc2c(N3CCOCC3)nc(SCc3ccc(OC)c(NC(=O)COC)c3)nc2n1C [Compound 63, 8-ethyl-2-(3-methoxyacetylamino-4-methoxybenzylsulfanyl)-9-methyl-6-morpholino-9H-purine] |
| 150 | 110 | 120 | 130 | 210 | CCNc1nc(SCc2ccc(OC)c(C#N)c2)nc2c1ncn2C [Compound 89, 2-(3-cyano-4-methoxybenzylsulfanyl)-6-ethylamino-9-methyl-9H-purine] |
| 100 | 80 | 80 | 140 | 110 | CCc1nc2c(N3CCOCC3)nc(SCc3ccc(OC)c(C#N)c3)nc2n1CC [Compound 94, 2-(3-cyano-4-methoxybenzylsulfanyl)-8,9-diethyl-6-morpholino-9H-purine] |
| 1400 | 1000 | 1300 | 1500 | 440 | C=Cc1cc(CSc2nc(N3CCOCC3)c3nc(CC)n(C)c3n2)ccc1OC [Compound 79, 8-ethyl-2-(4-methoxy-3-vinylbenzylsulfanyl)-9-methyl-6-morpholino-9H-purine] |
| 50 | 40 | 40 | 80 | 120 | COc1ccc(CSc2nc(N3C=COCC3)c3ncn(C)c3n2)cc1 [Compound 147, 6-(2,3-dihydro-[1,4]oxadin-4-yl)-2-(4-methoxybenzylsulfanyl)-9-methyl-9H-purine] |
| 1490 | 1870 | 1750 | 2470 | 1800 | COc1ccc(CSc2nc(-c3ccco3)c3ncn(C)c3n2)cc1 [Compound 167, 6-(2-furyl)-2-(4-methoxybenzylsulfanyl)-9-methyl-9H-purine] |
| 2200 | 1020 | 1470 | 1700 | 610 | CCc1nc2c(N3CCOCC3)nc(SCc3ccc(C)cc3)nc2n1C [Compound 8, 8-ethyl-9-methyl-2-(4-methylbenzylsulfanyl)-6-morpholino-9H-purine] |
| 1340 | 1050 | 1390 | 1390 | 780 | CCc1nc2c(N3CCOCC3)nc(SCc3ccc(OC)c(NC(=O)c4ccco4)c3)nc2n1C [Compound 55, 8-ethyl-2-[3-(2-furylcarbonylamino)-4-methoxybenzylsulfanyl]-9-methyl-6-morpholino-9H-purine] |
| 50 | 20 | 40 | 80 | 40 | COc1ccc(CSc2nc(N(C)C)c3ncn(C)c3n2)cc1C#N [Compound 87, 2-(3-cyano-4-methoxybenzylsulfanyl)-6-dimethylamino-9-methyl-9H-purine] |
| < 40 | < 40 | < 40 | < 40 | < 40 | COc1ccc(CSc2nc(N3C=COCC3)c3ncn(C)c3n2)cc1F [Compound 152, 6-(2,3-dihydro-[1,4]oxadin-4-yl)-2-(3-fluoro-4-methoxybenzylsulfanyl)-9-methyl-9H-purine] |
| 560 | 290 | 350 | 410 | 280 | CCc1nc2c(N3CCOCC3)nc(SCc3ccc(OC)cc3)nc2n1C [Compound 1, 8-ethyl-2-(4-methoxybenzylsulfanyl)-9-methyl-6-morpholino-9H-purine] |
| 900 | 810 | 1200 | 1140 | 990 | CCc1nc2c(N3CCOCC3)nc(SCc3ccc(OC)c(NC(=O)CN)c3)nc2n1C [Compound 28, 2-[3-(2-aminoacetylamino)-4-methoxybenzylsulfanyl]-8-ethyl-9-methyl-6-morpholino-9H-purine hydrochloride] |
| < 40 | < 40 | < 40 | 70 | 50 | COc1ccc(CSc2nc(-c3cn[nH]c3)c3ncn(C)c3n2)cc1 [Compound 170, 2-(4-methoxybenzylsulfanyl)-9-methyl-6-(pyrazol-4-yl)-9H-purine] |
| 230 | 170 | 280 | 320 | 130 | CCOc1ccc(CSc2nc(N3CCOCC3)c3nc(CC)n(C)c3n2)cc1N [Compound 103, 2-(3-amino-4-ethoxybenzylsulfanyl)-8-ethyl-9-methyl-6-morpholino-9H-purine] |
| 80 | < 40 | 810 | 190 | 130 | COc1ccc(CSc2nc(N(C)OC)c3ncn(C)c3n2)cc1N [Compound 145, 2-(3-amino-4-methoxybenzylsulfanyl)-6-(N-methoxy-N-methylamino)-9-methyl-9H-purine] |
| 1750 | 850 | 1220 | 1680 | 910 | CCc1nc2c(N3CCOCC3)nc(SCc3ccc(OC)c(Cl)c3)nc2n1C [Compound 16, 2-(3-chloro-4-methoxybenzylsulfanyl)-8-ethyl-9-methyl-6-morpholino-9H-purine] |
